Results taken from patent US20180289656A1, “COMPOSITIONS AND METHODS TO TREAT URINARY TRACT INFECTIONS” (Hennepin Life Sciences, LLC, priority 2015, published 2018).

How the values were obtained:
Format in all cases: cell-based
[1] = test system: S. aureus; assay: bactericidal activity against 54 strains of S. aureus
From the text: 5% w/v GML nonaqueous gel is bactericidal for 54 strains of S. aureus, including highly antibiotic resistant organisms and multiple clonal groups. GML is antimicrobial on contact, killing the organisms in only a few minutes. The estimated chance of S. aureus developing resistance to GML is […]; thus resistance is highly unlikely.

[2] = test system: S. aureus (MN8, MNWH, MW2); assay: bactericidal activity / growth measured as CFU/mL in supernatants of microtiter plate cultures; conditions: GML at 500 μg/mL; all three S. aureus strains (MN8, MNWH, MW2); both 24 and 48 hours
Description: (§1) To directly assess the effect of GML on the formation of biofilms, 96 well plastic microtiter plates were inoculated with approximately 10^6/mL of one of three strains of S. aureus (MN8, a methicillin sensitive strain; MNWH, a methicillin resistant strain; or MW2, a methicillin resistant strain), or with non-typable Haemophilus influenzae. Wells were cultured stationary at 37° C. for 24 and 48. As a control, in one set of three wells for each microbe, the wells were agitated 3 times by pipetting up and down. The bactericidal activity of GML was determined by measuring CFU/mL in supernatants. After removal of supernatants, wells were washed three times with PBS to remove unbound cells, and were then treated with crystal violet for 30 minutes. Wells were again washed three times with PBS to remove unbound crystal violet. Finally, wells were treated with ethanol to solubilize biofilm associated crystal violet. Absorbance at 595 nm was determined by an ELISA reader to measure biofilm formation.

[3] = test system: S. aureus biofilms; assay: biofilm formation by crystal violet staining, absorbance at 595 nm; conditions: 10 fold lower GML concentrations than necessary to inhibit bacterial growth
Description: as §1

Glycerol monolaurate [GML]
time to kill the organisms (antimicrobial on contact) [1]: a few minutes | growth as measured by CFU/mL [2]: completely inhibited | biofilm formation (crystal violet staining of retained biofilm material) [3]: significantly inhibited
